What was measured:
Cannabinoid receptor 1 [1] = target: T1, Cannabinoid receptor 1 (Homo sapiens, UniProt P21554); experiment: Agonist activity at CB1 receptor (unknown origin) expressed in CHO cells by calcium mobilization assay; type: functional, cell-based
Cannabinoid receptor 2 [2] = target: T2, Cannabinoid receptor 2 (Homo sapiens, UniProt P34972); experiment: Agonist activity at CB2 receptor (unknown origin) expressed in CHO cells by calcium mobilization assay; type: functional, cell-based
Cannabinoid receptor 1 [3] = target: T1, Cannabinoid receptor 1; type: functional, cell-based, CHO
Cannabinoid receptor 2 [4] = target: T2, Cannabinoid receptor 2; experiment: Antagonist activity at CB2 receptor (unknown origin) expressed in CHO cells up to 10 uM incubated for 10 mins prior to CP55940 addition by calcium mobilization assay; type: functional, cell-based
Homo sapiens [5] = species: Homo sapiens; experiment: Selectivity index, ratio of IC50 for CB1 receptor (unknown origin) to IC50 for CB2 receptor (unknown origin)
Cannabinoid receptor 2 [6] = target: T2, Cannabinoid receptor 2; experiment: Binding affinity to CB2 receptor (unknown origin)
Cannabinoid receptor 2 [7] = target: T2, Cannabinoid receptor 2; experiment: Agonist activity at CB2 receptor (unknown origin) expressed in CHO cells at 10 uM by calcium mobilization assay relative to control; type: functional, cell-based
Homo sapiens [8] = species: Homo sapiens; experiment: Selectivity index, ratio of EC50 for CB1 receptor (unknown origin) to EC50 for CB2 receptor (unknown origin)

T1 sequence (P21554 whole entry): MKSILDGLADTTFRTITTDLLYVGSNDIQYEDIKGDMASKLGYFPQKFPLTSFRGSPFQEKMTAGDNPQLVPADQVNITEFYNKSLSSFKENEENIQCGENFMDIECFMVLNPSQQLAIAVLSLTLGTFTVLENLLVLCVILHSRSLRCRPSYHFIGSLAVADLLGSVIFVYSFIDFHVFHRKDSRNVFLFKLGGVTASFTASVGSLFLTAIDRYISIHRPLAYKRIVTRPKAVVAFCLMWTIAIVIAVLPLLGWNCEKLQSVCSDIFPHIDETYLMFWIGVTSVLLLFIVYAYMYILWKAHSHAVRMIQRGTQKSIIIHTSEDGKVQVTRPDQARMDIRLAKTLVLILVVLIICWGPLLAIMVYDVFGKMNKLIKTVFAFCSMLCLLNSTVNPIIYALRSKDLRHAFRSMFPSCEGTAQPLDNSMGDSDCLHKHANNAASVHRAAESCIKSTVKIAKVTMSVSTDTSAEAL
T2 sequence (P34972 whole entry): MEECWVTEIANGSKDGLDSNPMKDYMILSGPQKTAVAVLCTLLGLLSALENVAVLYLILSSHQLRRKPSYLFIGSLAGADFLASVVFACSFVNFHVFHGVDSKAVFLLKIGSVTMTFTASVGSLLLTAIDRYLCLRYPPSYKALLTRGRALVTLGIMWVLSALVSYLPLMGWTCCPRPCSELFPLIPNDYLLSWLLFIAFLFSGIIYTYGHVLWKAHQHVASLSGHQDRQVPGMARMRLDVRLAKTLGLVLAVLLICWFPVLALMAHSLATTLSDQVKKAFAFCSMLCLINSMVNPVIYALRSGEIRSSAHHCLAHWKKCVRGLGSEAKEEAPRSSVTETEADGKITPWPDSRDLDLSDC

## CCCCNC(=O)c1cc2cccc(OCCCC)c2oc1=O
Cannabinoid receptor 1 [1]
  EC50: > 10000 nM
Cannabinoid receptor 2 [2]
  EC50: > 10000 nM

## CCCOc1c(OC)ccc2cc(C(=O)NC3CCCCC3)c(=O)oc12
Cannabinoid receptor 1 [3]
  IC50: > 10000 nM
Cannabinoid receptor 2 [4]
  IC50: 807 nM
Homo sapiens [5]
  Ratio IC50: > 12.4

## CCCCOc1c(OC)ccc2cc(C(=O)NC(C)CCC)c(=O)oc12 (stereo not drawn)
Cannabinoid receptor 1 [3]
  IC50: > 10000 nM
Cannabinoid receptor 2 [4]
  IC50: 19 nM
Homo sapiens [5]
  Ratio IC50: > 526

## CCCCCOc1ccc2c(c1OCCCCC)CN(CCc1ccc(N)cc1)C2=O
Cannabinoid receptor 2 [6]
  Ki: 0.11 nM

## CCCCCOc1c(OC)ccc2c1CN(CCc1ccc(N)cc1)C2=O
Cannabinoid receptor 2 [6]
  Ki: 14 nM

## CCCCOc1cccc2cc(C(=O)NC3CC3)c(=O)oc12
Cannabinoid receptor 1 [1]
  EC50: > 10000 nM
Cannabinoid receptor 2 [7]
  Activity: 34%

## CCCCOc1cccc2cc(C(=O)NN3CCCCC3)c(=O)oc12
Cannabinoid receptor 1 [1]
  EC50: > 10000 nM
Cannabinoid receptor 2 [7]
  Activity: 37%

## CCCCCOc1ccc(C(=O)NCCc2ccc(O)cc2)cc1OCCCCC
Cannabinoid receptor 2 [6]
  Ki: 0.44 nM

## CCCCCOc1ccc(C(=O)NCCc2ccc(N)cc2)cc1SCCCCC
Cannabinoid receptor 2 [6]
  Ki: 1.9 nM

## CCCCCOc1c(OC)ccc2cc(C(=O)N3CCCc4ccccc4C3)c(=O)[nH]c12
Cannabinoid receptor 2 [6]
  Ki: 118 nM

## CCCCOc1c(OC)ccc2cc(C(=O)NC3CCCCC3)c(=O)oc12
Cannabinoid receptor 1 [3]
  IC50: > 10000 nM
Cannabinoid receptor 2 [4]
  IC50: 22 nM
Homo sapiens [5]
  Ratio IC50: > 454

## CCCCOc1c(OC)ccc2cc(C(=O)NC(C)C)c(=O)oc12
Cannabinoid receptor 1 [3]
  IC50: > 10000 nM
Cannabinoid receptor 2 [4]
  IC50: 162 nM
Homo sapiens [5]
  Ratio IC50: > 61.7

## O=C(NC1CCCCC1)c1cc2cccc(OCC3CC3)c2oc1=O
Cannabinoid receptor 1 [1]
  EC50: > 10000 nM
Cannabinoid receptor 2 [7]
  Activity: 42%

## CCCCCOc1c(OC)ccc2cc(C(=O)NCc3ccc4c(c3)OCO4)c(=O)oc12
Cannabinoid receptor 1 [3]
  IC50: > 10000 nM
Cannabinoid receptor 2 [6]
  Ki: 0.087 nM
Cannabinoid receptor 2 [4]
  IC50: 644 nM
Homo sapiens [5]
  Ratio IC50: > 15.5

## O=C(NCC1CCOCC1)c1cnc(Nc2ccc(Cl)cc2Cl)nc1C(F)(F)F [GW842166X]
Cannabinoid receptor 1 [1]
  EC50: > 10000 nM
Cannabinoid receptor 2 [2]
  EC50: 431 nM
Homo sapiens [8]
  Ratio EC50: > 23.2

## CCCCOc1cccc2cc(C(=O)NC(CC)CC)c(=O)oc12
Cannabinoid receptor 1 [1]
  EC50: > 10000 nM
Cannabinoid receptor 2 [2]
  EC50: 130 nM
Homo sapiens [8]
  Ratio EC50: > 76.9

## CCCCOc1cccc2cc(C(=O)NCC3CC3)c(=O)oc12
Cannabinoid receptor 1 [1]
  EC50: > 10000 nM
Cannabinoid receptor 2 [2]
  EC50: > 10000 nM

## CCCCOc1cc(Br)cc2cc(C(=O)NC3CC3)c(=O)oc12
Cannabinoid receptor 1 [3]
  IC50: > 10000 nM
Cannabinoid receptor 2 [4]
  IC50: > 10000 nM

## CCOc1cccc2cc(C(=O)NC3CCCCC3)c(=O)oc12
Cannabinoid receptor 1 [1]
  EC50: > 10000 nM
Cannabinoid receptor 2 [2]
  EC50: > 10000 nM

## CCCCCOc1cc(C(=O)NC2CCc3cc(O)c(O)cc3C2)ccc1OC (stereo not drawn)
Cannabinoid receptor 2 [6]
  Ki: 18 nM

## CCCCOc1cccc2cc(C(=O)N3CCCCC3)c(=O)oc12
Cannabinoid receptor 1 [1]
  EC50: > 10000 nM
Cannabinoid receptor 2 [2]
  EC50: > 10000 nM

## CCCCOc1cccc2cc(C(=O)NC34CC5CC(CC(C5)C3)C4)c(=O)oc12
Cannabinoid receptor 1 [1]
  EC50: > 10000 nM
Cannabinoid receptor 2 [2]
  EC50: > 10000 nM

## CCCCCOc1cc(C(=O)NCCc2ccc(O)cc2)ccc1OC
Cannabinoid receptor 2 [6]
  Ki: 2.5 nM

## CCCCOc1c(OC)ccc2cc(C(=O)NCCc3ccccc3)c(=O)[nH]c12
Cannabinoid receptor 2 [6]
  Ki: 0.33 nM

## CCCCCNc1c(OC)ccc2c1CN(CCc1ccc(O)cc1)C2=O
Cannabinoid receptor 2 [6]
  Ki: 0.088 nM

## CCCCOc1cc(Br)cc2cc(C(=O)NN3CCOCC3)c(=O)oc12
Cannabinoid receptor 1 [3]
  IC50: > 10000 nM
Cannabinoid receptor 2 [4]
  IC50: > 10000 nM

## CCCCOc1cc(Br)cc2cc(C(=O)NC(C)C)c(=O)oc12
Cannabinoid receptor 1 [3]
  IC50: > 10000 nM
Cannabinoid receptor 2 [4]
  IC50: > 10000 nM

## CCCCOc1c(OC)ccc2cc(C(=O)NC(CC)CC)c(=O)oc12
Cannabinoid receptor 1 [3]
  IC50: > 10000 nM
Cannabinoid receptor 2 [4]
  IC50: 20 nM
Homo sapiens [5]
  Ratio IC50: > 500

## CCCCCOc1c(OC)ccc2c1C(=O)N(CCc1ccc(O)cc1)C2=O
Cannabinoid receptor 2 [6]
  Ki: 7.3 nM

## CCCCCOc1cc(Br)cc2cc(C(=O)NC3CCCCC3)c(=O)oc12
Cannabinoid receptor 1 [3]
  IC50: > 10000 nM
Cannabinoid receptor 2 [4]
  IC50: 2190 nM
Homo sapiens [5]
  Ratio IC50: 4.6

## CCCCCSc1cc(/C=C/C(=O)NCCc2ccc(O)cc2)ccc1OC
Cannabinoid receptor 2 [6]
  Ki: 1.1 nM

## CCCCCOc1cc(/C=C/C(=O)NCCc2ccncc2)ccc1OC
Cannabinoid receptor 2 [6]
  Ki: 44 nM

## CCCCOc1c(OC)ccc2cc(C(=O)NC(C)C(C)C)c(=O)oc12 (stereo not drawn)
Cannabinoid receptor 1 [3]
  IC50: > 10000 nM
Cannabinoid receptor 2 [4]
  IC50: 28 nM
Homo sapiens [5]
  Ratio IC50: > 357

## CCCCCOc1c(OC)ccc2c1CCN(CCc1ccc(O)cc1)C2=O
Cannabinoid receptor 2 [6]
  Ki: 1.8 nM

## CCCCOc1cccc2cc(C(=O)NC(C)CCC)c(=O)oc12 (stereo not drawn)
Cannabinoid receptor 1 [1]
  EC50: > 10000 nM
Cannabinoid receptor 2 [2]
  EC50: 321 nM
Homo sapiens [8]
  Ratio EC50: > 31.2

## CCCCCCOc1cccc2cc(C(=O)NC3CCCCC3)c(=O)oc12
Cannabinoid receptor 1 [1]
  EC50: > 10000 nM
Cannabinoid receptor 2 [7]
  Activity: 36%

## CCCCCOc1c(OC)ccc2c(=O)n(CCc3ccncc3)ccc12
Cannabinoid receptor 2 [6]
  Ki: 8.4 nM

## CCCCCCOc1cc(Br)cc2cc(C(=O)NC3CCCCC3)c(=O)oc12
Cannabinoid receptor 1 [3]
  IC50: > 10000 nM
Cannabinoid receptor 2 [4]
  IC50: > 10000 nM

## CCCCCOc1c(OC)ccc2c1CN(CCc1ccc(O)cc1)C2=O
Cannabinoid receptor 2 [6]
  Ki: 11 nM

## CCCCOc1cc(Br)cc2cc(C(=O)NC3CCCCC3)c(=O)oc12
Cannabinoid receptor 1 [3]
  IC50: > 10000 nM
Cannabinoid receptor 2 [4]
  IC50: 90 nM
Homo sapiens [5]
  Ratio IC50: > 111

## CCCCCOc1cc(/C=C/C(=O)NCCc2ccc(O)cc2)ccc1OC
Cannabinoid receptor 2 [6]
  Ki: 4.8 nM

## O=C(NC1CCCCC1)c1cc2cccc(OCc3ccccc3)c2oc1=O
Cannabinoid receptor 1 [1]
  EC50: > 10000 nM
Cannabinoid receptor 2 [7]
  Activity: 33%

## CCCCOc1cccc2cc(C(=O)NC(C)C)c(=O)oc12
Cannabinoid receptor 1 [1]
  EC50: > 10000 nM
Cannabinoid receptor 2 [2]
  EC50: 103 nM
Homo sapiens [8]
  Ratio EC50: > 97.1

## CCCCCOc1c(OC)ccc2c(=O)n(CCc3ccc(O)cc3)ccc12
Cannabinoid receptor 2 [6]
  Ki: 3.7 nM

## CCCCCOc1c(OC)ccc2cc(C(=O)N3CCCC(C(=O)OCC)C3)c(=O)[nH]c12 (stereo not drawn)
Cannabinoid receptor 2 [6]
  Ki: 100 nM

## CCCCOc1cccc2cc(C(=O)NCc3ccccc3)c(=O)oc12
Cannabinoid receptor 1 [1]
  EC50: > 10000 nM
Cannabinoid receptor 2 [2]
  EC50: > 10000 nM

## CCCOc1cccc2cc(C(=O)NC3CCCCC3)c(=O)oc12
Cannabinoid receptor 1 [1]
  EC50: > 10000 nM
Cannabinoid receptor 2 [2]
  EC50: > 10000 nM

## O=C(NC1CCCCC1)c1cc2cc(Br)cc(OCC3CC3)c2oc1=O
Cannabinoid receptor 1 [3]
  IC50: > 10000 nM
Cannabinoid receptor 2 [4]
  IC50: 746 nM
Homo sapiens [5]
  Ratio IC50: > 13.4

## CCCCOc1c(OC)ccc2cc(C(=O)NCC3CC3)c(=O)oc12
Cannabinoid receptor 1 [3]
  IC50: > 10000 nM
Cannabinoid receptor 2 [4]
  IC50: 1180 nM
Homo sapiens [5]
  Ratio IC50: > 8.5

## CCCCOc1cccc2cc(C(=O)NC3CCCC3)c(=O)oc12
Cannabinoid receptor 1 [1]
  EC50: > 10000 nM
Cannabinoid receptor 2 [2]
  EC50: 793 nM
Homo sapiens [8]
  Ratio EC50: > 12.6

## CCCCCOc1cc(C(=O)NCCc2ccncc2)ccc1OC
Cannabinoid receptor 2 [6]
  Ki: 73 nM

## CCCOc1cc(Br)cc2cc(C(=O)NC3CCCCC3)c(=O)oc12
Cannabinoid receptor 1 [3]
  IC50: > 10000 nM
Cannabinoid receptor 2 [4]
  IC50: > 10000 nM

## CCCCOc1cccc2cc(C(=O)NC(C)(C)C)c(=O)oc12
Cannabinoid receptor 1 [1]
  EC50: > 10000 nM
Cannabinoid receptor 2 [2]
  EC50: 972 nM
Homo sapiens [8]
  Ratio EC50: > 10.3

## CCCCOc1cccc2cc(C(=O)NC(C)C(C)C)c(=O)oc12 (stereo not drawn)
Cannabinoid receptor 1 [1]
  EC50: > 10000 nM
Cannabinoid receptor 2 [7]
  Activity: 41%

## CCCCCOc1c(OC)ccc2cc(C(=O)NC3CCCCC3)c(=O)oc12
Cannabinoid receptor 1 [3]
  IC50: > 10000 nM
Cannabinoid receptor 2 [4]
  IC50: 61 nM
Homo sapiens [5]
  Ratio IC50: > 164

## CCCCCOc1cccc2cc(C(=O)NC3CCCCC3)c(=O)oc12
Cannabinoid receptor 1 [1]
  EC50: > 10000 nM
Cannabinoid receptor 2 [2]
  EC50: 245 nM
Homo sapiens [8]
  Ratio EC50: > 40.8

## CCCCOc1cccc2cc(C(=O)NN3CCOCC3)c(=O)oc12
Cannabinoid receptor 1 [1]
  EC50: > 10000 nM
Cannabinoid receptor 2 [2]
  EC50: > 10000 nM

## CCCCOc1cccc2cc(C(=O)NC3CCCCC3)c(=O)oc12
Cannabinoid receptor 1 [1]
  EC50: > 10000 nM
Cannabinoid receptor 2 [2]
  EC50: 144 nM
Homo sapiens [8]
  Ratio EC50: > 69.4
